Experimental data as given in paper PMC9632963, “Preclinical characterization and phase I clinical trial of CT053PTSA targets MET, AXL, and VEGFR2 in patients with advanced solid tumors” (Frontiers in Immunology, 2022).
“And” between values parts separate entries of the source, which are not always exact repeats. Equal entries are not always repeated. “Also recorded” adds a separate entry of the source.

Experiments:
[1] = target: HIPK4 (Homo sapiens, UniProt Q8NE63); assay: Kinase inhibition assay (LANCE or HTRF); assay type: biochemical; conditions: ATP at Km
Procedure: (§3) The IC50 values were determined by measuring phosphorylation of peptide substrate poly at ATP concentrations at the Km.

[2] = target: T1, VEGFR2 (Homo sapiens, UniProt P35968); assay: Cellular kinase phosphorylation assay (sandwich ELISA), HUVECs, VEGF-A stimulated; assay type: cell-based; parameters: endogenous in cells; host or cells: HUVEC
Procedure: Phosphorylation of the receptors MET, AXL, VEGFR2, and FLT3 was assessed in the transgenic human MKN45 gastric tumor cell line overexpressing MET, mouse embryonic fibroblasts (MEFs) expressing full-length human AXL (AXL-MEFs), human umbilical vein endothelial cells (HUVECs) […], and MEFs expressing full-length human FLT3 (FLT3-wt-MEFs), respectively. […] Then, HUVECs and FLT3-wt-MEFs were stimulated with the ligands VEGF-A (100 ng/ml, for 3 min) and FLT3-ligand (50 ng/ml, for 5 min). MKN45 (overexpressing MET) and AXL-MEFs cells had no stimulation. Cells treated with staurosporine (AXL, FLT3-wt, c-Kit, FLT3, TIE2, VEGF-R2; [1,0E-05 M]) or BMS777607 (MET; [1,0E-06 M]) or sunitinib (VEGF-R3; [1,0E-06 M]) or crizotinib (RON; [1,0E-05 M] were defined as low control (n = 8). The median value of those wells represented the background and was set to 0%. Cells treated with solvent alone were defined as high control (n = 8). The median value of those wells was set to 100%. Test sample-treated cells as well as high and low control were stimulated in identical manner. Quantification of receptor tyrosine kinase autophosphorylation was assessed in 96-well plates via sandwich ELISA using a receptor specific capture antibody and an anti-phosphotyrosine detection antibody. […]

[3] = target: PDGFRα (Homo sapiens, UniProt P16234); assay: Kinase inhibition assay (LANCE or HTRF); assay type: biochemical; conditions: ATP at Km
Procedure: as §3

[4] = target: FLT3 (Homo sapiens, UniProt P36888); assay: Kinase inhibition assay (LANCE or HTRF); assay type: biochemical; conditions: ATP at Km
Procedure: as §3

[5] = system: SNU-5; assay: Cell proliferation assay (CellTiter-Glo, 72 hours); assay type: cell-based; conditions: Homo sapiens, read-out: IC50 anti-proliferative
Procedure: (§4) Human gastric tumor cell lines with high MET expression levels, namely, the GTL-16, MKN45, SNU638, Hs746T, SNU-620, and SNU-5 cell lines, were used in the assay. […] Cell viability was measured after 72 hours using a CellTiter-Glo Luminescent Cell Viability Assay Kit (Promega, WI, USA) according to the manufacturer’s instructions.

[6] = system: HUVECs; assay: Endothelial cell tubule formation assay, VEGF-induced; assay type: cell-based; conditions: Homo sapiens, HUVEC, VEGF 40 ng/ml, 8 hours
From the text: Then, after staining with Calcein AM (ThermoFisher, CA, USA), images of tubule formation were captured, and the total tube area was quantified with ImageXpress HCS (Molecular Devices, CA, USA).

[7] = system: SNU620; assay: Cell proliferation assay (CellTiter-Glo, 72 hours); assay type: cell-based; conditions: Homo sapiens, read-out: IC50 anti-proliferative
Procedure: as §4

[8] = system: AGS; assay: Cell proliferation assay (CellTiter-Glo, 72 hours); assay type: cell-based; conditions: Homo sapiens, read-out: IC50 anti-proliferative
[9] = system: SNU-216; assay: Cell proliferation assay (CellTiter-Glo, 72 hours); assay type: cell-based; conditions: Homo sapiens, read-out: IC50 anti-proliferative
Procedure: (§5) Human gastric tumor cell lines with high MET expression levels, namely, the GTL-16, MKN45, SNU638, Hs746T, SNU-620, and SNU-5 cell lines, were used in the assay. These cell lines were obtained from American Type Culture Collection (ATCC), Japanese Collection of Research Bioresources (JCRB), Shanghai Institutes of Biological Sciences, CAS (SIBS), Korean Cell Line Bank (KCLB) or National Institutes of Health (NIH). […] Cell viability was measured after 72 hours using a CellTiter-Glo Luminescent Cell Viability Assay Kit (Promega, WI, USA) according to the manufacturer’s instructions.

[10] = system: NUGC3; assay: Cell proliferation assay (CellTiter-Glo, 72 hours); assay type: cell-based; conditions: Homo sapiens, NUGC-3, read-out: IC50 anti-proliferative
Procedure: as §5

[11] = system: gastric tumor cell lines with high MET mRNA levels; assay: cells; conditions: Homo sapiens, read-out: average IC50 value
Procedure: (§1) These cell lines were obtained from American Type Culture Collection (ATCC), Japanese Collection of Research Bioresources (JCRB), Shanghai Institutes of Biological Sciences, CAS (SIBS), Korean Cell Line Bank (KCLB) or National Institutes of Health (NIH). […] Cell viability was measured after 72 hours using a CellTiter-Glo Luminescent Cell Viability Assay Kit (Promega, WI, USA) according to the manufacturer’s instructions.
(§2) The MET mRNA expression level in each human gastric cell lines was evaluated with real-time PCR. Glyceraldehyde-3-phosphate dehydrogenase (GAPDH) was considered as the internal control. The amplification was performed in a 20 μl mixture containing 10 μl of TaqMan Universal PCR Master Mix (Invitrogen, CA, USA) with UNG, 1 μl of the MET (Hs01565584_m1) or GAPDH (Hs02786624_g1) TaqMan Gene Expression Assay (Thermo, CA, USA), and 5 μl of cDNA solution. Each sample was analyzed in triplicate on an Agilent Technologies Stratagenes Mx3005P (CA, USA). Relative MET mRNA expression is presented as the fold-change, which was calculated using the 2^ (-ΔΔCt) method.

[12] = system: gastric tumor cell lines with low MET mRNA levels; assay: cells; conditions: Homo sapiens, read-out: average IC50 value
Procedure: as §1, §2

[13] = target: T1, VEGFR2; assay: Kinase inhibition assay (LANCE or HTRF); assay type: biochemical; conditions: ATP at Km
Procedure: as §3

[14] = target: Musk (Homo sapiens, UniProt O15146); assay: Kinase inhibition assay (LANCE or HTRF); assay type: biochemical; conditions: ATP at Km
Procedure: as §3

[15] = system: MKN45; assay: Cell proliferation assay (CellTiter-Glo, 72 hours); assay type: cell-based; conditions: Homo sapiens, MKN-45, read-out: IC50 anti-proliferative
Procedure: as §4

[16] = target: Fgr (Homo sapiens, UniProt P09769); assay: Kinase inhibition assay (LANCE or HTRF); assay type: biochemical; conditions: ATP at Km
Procedure: as §3

[17] = Body weight of tumor-bearing mice in efficacy studies; assay type: in vivo; conditions: all groups, 1-20 mg/kg
Procedure: Human tumor xenografts were established in female BALB/cA nude mice (5-6 weeks old) by administering the SNU-5 and MKN-45 cells, which have high MET expression levels. For efficacy studies in patient-derived tumor xenograft (PDX) mouse models, MET-overexpressing GA0046 and GA3121 tumors (obtained from Crownbio, CA, USA) were established by directly implanting surgical tissues into immunodeficient mice. […] The subcutaneous tumor size and body weight were measured twice weekly. The tumor volumes were determined by measuring two perpendicular diameters with calipers and calculated as (length × width^2)/2.

[18] = system: SNU-601; assay: Cell proliferation assay (CellTiter-Glo, 72 hours); assay type: cell-based; conditions: Homo sapiens, read-out: IC50 anti-proliferative
[19] = system: patients with advanced solid tumors; assay: Phase I trial: antitumor activity (RECIST 1.1); assay type: in vivo, human
Procedure: Descriptive statistics of safety are presented per CTCAE v4.0. Subjects who received at least one dose of CT053PTSA were considered eligible to be evaluated and included in safety analyses. […] According to the RECIST 1.1 criteria, imaging examinations were performed at each specified time point in the protocol. The antitumor activity was measured by RECIST1.1.

T1 sequence (P35968 20-1356): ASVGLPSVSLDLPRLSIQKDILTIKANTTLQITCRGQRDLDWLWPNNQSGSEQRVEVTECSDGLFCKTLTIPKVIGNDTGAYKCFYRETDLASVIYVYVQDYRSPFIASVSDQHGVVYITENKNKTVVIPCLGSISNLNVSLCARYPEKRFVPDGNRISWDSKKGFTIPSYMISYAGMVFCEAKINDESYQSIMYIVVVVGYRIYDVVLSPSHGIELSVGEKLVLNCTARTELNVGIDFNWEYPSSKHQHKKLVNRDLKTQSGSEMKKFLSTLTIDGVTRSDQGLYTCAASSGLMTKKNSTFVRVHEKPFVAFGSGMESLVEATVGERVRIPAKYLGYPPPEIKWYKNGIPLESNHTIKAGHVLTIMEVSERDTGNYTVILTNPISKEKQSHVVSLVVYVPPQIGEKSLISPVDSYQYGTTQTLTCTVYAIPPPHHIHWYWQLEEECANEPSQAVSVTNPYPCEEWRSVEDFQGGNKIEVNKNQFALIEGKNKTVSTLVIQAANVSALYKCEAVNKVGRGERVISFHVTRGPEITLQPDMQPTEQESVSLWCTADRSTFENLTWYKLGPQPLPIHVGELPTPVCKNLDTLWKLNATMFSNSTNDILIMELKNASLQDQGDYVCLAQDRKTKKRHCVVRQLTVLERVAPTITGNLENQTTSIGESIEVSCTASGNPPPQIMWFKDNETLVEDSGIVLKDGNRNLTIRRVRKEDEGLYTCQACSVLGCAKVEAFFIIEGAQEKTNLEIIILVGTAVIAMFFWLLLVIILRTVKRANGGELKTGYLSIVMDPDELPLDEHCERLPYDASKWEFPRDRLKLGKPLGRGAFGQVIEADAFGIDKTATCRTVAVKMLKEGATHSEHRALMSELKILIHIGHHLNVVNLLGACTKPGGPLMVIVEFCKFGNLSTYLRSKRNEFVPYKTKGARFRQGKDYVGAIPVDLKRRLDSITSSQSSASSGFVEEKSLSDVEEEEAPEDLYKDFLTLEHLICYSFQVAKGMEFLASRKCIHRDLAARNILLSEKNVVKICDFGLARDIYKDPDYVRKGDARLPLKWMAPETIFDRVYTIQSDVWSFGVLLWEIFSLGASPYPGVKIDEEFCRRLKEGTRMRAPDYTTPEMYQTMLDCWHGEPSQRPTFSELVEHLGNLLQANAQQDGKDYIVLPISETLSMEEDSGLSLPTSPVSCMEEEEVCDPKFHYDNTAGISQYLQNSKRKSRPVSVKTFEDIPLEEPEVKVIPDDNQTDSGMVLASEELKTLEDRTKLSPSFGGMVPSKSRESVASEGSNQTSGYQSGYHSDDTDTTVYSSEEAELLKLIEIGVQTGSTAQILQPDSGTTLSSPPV
Sequence of PDGFRα (P16234 24-1089): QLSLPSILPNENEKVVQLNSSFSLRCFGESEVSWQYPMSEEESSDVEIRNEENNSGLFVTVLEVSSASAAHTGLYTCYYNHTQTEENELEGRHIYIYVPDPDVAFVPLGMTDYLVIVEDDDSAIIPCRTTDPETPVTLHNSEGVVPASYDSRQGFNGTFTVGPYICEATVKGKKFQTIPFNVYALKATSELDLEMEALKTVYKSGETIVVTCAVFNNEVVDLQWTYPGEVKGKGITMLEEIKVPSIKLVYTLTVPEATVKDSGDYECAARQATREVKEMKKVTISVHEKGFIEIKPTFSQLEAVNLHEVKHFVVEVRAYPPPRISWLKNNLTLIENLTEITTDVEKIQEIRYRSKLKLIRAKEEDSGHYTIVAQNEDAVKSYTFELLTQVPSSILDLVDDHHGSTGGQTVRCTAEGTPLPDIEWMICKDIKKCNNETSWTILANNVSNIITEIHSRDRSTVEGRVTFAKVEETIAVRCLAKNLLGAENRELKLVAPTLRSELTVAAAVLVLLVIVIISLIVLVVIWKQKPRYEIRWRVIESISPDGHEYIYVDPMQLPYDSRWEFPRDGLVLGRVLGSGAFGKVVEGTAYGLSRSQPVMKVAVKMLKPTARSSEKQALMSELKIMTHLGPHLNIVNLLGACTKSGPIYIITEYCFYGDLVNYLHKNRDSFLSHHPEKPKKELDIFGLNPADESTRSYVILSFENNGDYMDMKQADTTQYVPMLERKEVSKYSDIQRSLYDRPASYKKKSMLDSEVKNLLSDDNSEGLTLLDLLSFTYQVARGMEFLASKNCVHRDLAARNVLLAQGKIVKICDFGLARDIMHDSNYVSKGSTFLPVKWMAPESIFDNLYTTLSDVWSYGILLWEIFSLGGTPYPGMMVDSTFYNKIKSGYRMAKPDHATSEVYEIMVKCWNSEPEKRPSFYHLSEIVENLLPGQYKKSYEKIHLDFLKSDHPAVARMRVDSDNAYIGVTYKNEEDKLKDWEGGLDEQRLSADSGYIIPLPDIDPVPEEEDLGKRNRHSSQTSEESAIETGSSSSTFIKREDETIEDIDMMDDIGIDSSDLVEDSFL
Sequence of Fgr (P09769 whole entry): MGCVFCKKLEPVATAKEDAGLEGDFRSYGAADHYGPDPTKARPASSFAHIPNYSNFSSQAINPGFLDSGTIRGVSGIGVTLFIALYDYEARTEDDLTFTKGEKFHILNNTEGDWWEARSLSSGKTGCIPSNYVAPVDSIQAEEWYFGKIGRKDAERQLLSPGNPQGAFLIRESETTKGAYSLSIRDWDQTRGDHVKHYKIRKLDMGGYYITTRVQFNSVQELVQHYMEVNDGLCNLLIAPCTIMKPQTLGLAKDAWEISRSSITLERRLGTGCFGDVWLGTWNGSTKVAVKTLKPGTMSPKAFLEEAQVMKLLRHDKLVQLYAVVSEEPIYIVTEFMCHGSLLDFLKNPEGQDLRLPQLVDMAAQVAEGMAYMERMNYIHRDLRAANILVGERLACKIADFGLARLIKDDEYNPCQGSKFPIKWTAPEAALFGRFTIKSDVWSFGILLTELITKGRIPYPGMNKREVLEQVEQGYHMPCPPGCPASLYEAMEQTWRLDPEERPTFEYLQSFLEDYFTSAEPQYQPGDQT
Sequence of FLT3 (P36888 27-993): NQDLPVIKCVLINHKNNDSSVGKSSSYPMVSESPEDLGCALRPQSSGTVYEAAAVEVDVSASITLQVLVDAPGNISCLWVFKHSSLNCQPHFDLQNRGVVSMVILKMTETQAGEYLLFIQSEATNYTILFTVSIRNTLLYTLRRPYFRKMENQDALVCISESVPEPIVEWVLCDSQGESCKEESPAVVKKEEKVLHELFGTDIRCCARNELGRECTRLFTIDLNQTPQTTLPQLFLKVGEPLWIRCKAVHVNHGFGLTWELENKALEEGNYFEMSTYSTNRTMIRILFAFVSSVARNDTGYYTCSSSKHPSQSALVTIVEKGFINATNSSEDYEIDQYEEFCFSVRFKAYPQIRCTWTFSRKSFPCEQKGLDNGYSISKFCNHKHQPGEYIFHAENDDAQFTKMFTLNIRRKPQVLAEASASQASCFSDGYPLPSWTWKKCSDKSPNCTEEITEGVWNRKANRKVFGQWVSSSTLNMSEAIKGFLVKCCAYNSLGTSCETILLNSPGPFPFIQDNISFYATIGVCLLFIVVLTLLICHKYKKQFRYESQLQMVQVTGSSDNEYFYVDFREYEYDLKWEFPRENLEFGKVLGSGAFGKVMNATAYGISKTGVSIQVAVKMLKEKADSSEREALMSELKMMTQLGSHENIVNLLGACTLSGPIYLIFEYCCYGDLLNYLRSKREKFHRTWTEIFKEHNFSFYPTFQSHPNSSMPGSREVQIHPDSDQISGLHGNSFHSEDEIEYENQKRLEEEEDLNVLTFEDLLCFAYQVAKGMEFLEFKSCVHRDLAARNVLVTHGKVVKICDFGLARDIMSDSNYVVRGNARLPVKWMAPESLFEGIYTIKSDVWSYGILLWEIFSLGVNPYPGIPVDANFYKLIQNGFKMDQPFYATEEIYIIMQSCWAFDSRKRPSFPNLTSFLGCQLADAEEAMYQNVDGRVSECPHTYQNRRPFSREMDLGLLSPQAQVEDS
Sequence of Musk (O15146 24-869): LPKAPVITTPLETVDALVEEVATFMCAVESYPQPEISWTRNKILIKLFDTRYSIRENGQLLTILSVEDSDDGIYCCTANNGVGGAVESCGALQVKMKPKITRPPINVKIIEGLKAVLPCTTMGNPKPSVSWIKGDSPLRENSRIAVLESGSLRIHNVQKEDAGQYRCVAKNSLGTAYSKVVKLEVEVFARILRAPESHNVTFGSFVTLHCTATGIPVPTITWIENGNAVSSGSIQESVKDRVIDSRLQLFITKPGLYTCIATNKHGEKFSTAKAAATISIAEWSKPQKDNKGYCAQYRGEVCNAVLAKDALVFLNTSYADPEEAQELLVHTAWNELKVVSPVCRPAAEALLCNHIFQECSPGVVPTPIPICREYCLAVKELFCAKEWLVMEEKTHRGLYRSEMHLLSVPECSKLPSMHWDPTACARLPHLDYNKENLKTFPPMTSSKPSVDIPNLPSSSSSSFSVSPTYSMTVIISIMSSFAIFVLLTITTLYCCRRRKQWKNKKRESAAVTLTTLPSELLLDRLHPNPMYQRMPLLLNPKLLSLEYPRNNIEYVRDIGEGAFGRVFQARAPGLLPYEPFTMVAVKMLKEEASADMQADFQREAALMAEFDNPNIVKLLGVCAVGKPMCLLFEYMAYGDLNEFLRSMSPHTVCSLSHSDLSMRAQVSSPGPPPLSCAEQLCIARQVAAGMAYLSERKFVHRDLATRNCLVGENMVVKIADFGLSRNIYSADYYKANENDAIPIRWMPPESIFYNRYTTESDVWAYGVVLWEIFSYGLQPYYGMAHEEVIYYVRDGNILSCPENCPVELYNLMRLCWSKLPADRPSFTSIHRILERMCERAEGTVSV

Cc1c(C(=O)Nc2ccc(Oc3ccnc4cc(OCC(C)(C)O)ccc34)c(F)c2)c(=O)n(-c2ccccc2)n1C [CT053]
IC50 [1]: 0.18 µM
IC50 ([2]; HUVECs, VEGF-A 100 ng/ml, read-out: IC50, phosphorylation of VEGFR2): 0.0011 µM
IC50 ([2]; printed in Figure 1E, read-out: phospho-VEGF-R2: IC50): 0.0011 µM
IC50 [3]: 0.39 µM
IC50 [4]: 0.0086 µM
IC50 [5]: 0.06 µM
IC50 ([6]; read-out: IC50, percentage area of tube formation (+ VEGF)): 0.02 µM
IC90 ([6]; read-out: IC90, Tube Area % Effect (+ VEGF)): 0.17 µM
IC50 [7]: 0.06 µM
IC50 [8]: > 10 µM
IC50 [9]: > 10 µM
IC50 [10]: > 10 µM
IC50 [11]: 0.095 µM
IC50 [12]: > 10 µM
IC50 [13]: 0.046 µM
IC50 [14]: 0.31 µM
IC50 [15]: 0.1 µM
IC50 [16]: 0.077 µM
change in body weight [17]: no significant change in body weight
IC50 [18]: > 10 µM

Cc1c(C(=O)Nc2ccc(Oc3ccnc4cc(OCC(C)(C)O)ccc34)c(F)c2)c(=O)n(-c2ccccc2)n1C [CT053PTSA]
duration of SD in single patients ([19]; 60 mg QD): 16 weeks and 24 weeks
duration of SD in single patient ([19]; 100 mg dose group): 8 weeks
CR or PR ([19]; 17 evaluated patients): none of them achieved CR or PR; also recorded: No CR or PR was observed
DCR ([19]; 17 evaluated patients): 29.4%
